Assay results as given in PMC12051620, “Molecular basis underlying the specificity of an antagonist AA92593 for mammalian melanopsins” (The Journal of Biological Chemistry, 2025).

What was measured:
[1] = tested on: mouse melanopsin S269^6.52A mutant; experiment: GsX GloSensor assay with Gsα/q11; type: cell-based; conditions: 16.7 μM AA92593, COS-1 cells
belcheri melanopsin WT = biological target: T1, belcheri melanopsin WT (Branchiostoma belcheri, UniProt Q4R1I4); experiment: GsX GloSensor assay with Gsα/q11; type: cell-based; conditions: 16.7 μM AA92593, COS-1 cells
T1 construct: expressed in transfected cells; host or cells: COS-1
Excerpt: Non-mammalian-type melanopsins were successfully converted into AA92593-susceptible types by introducing Phe-94^2.61/Ser-188^ECL2/Ser-269^6.52 or Phe-207^5.42 (Fig. 6). We attempted to extend the functional conversion targets to invertebrate melanopsin (see Fig. S2). […] We assessed the susceptibility of belcheri and lanceolatum melanopsins to AA92593 using the GsX GloSensor assay with Gsα/q11. In the absence of AA92593, the belcheri melanopsin produced smaller light-dependent cAMP responses than the other melanopsins assessed in this study (Fig. 7A), whereas the lanceolatum melanopsin produced robust cAMP responses upon light illumination (Fig. 7B). […] On the other hand, responses by the lanceolatum melanopsin were insensitive to the antagonist (Fig. 7B), similar to non-mammalian-type melanopsins (Fig. 6, A and D). […]
For GloSensor assay, opsins, GloSensor assay sensor (coded by pGlo-22F), and NanoBiT-tagged G proteins were transiently expressed in COS-1 cells (kindly provided from Dr David Farrens, Oregon Health and Science University) using PEI as described previously ([24], [52]). […] For GFP-fluorescence microscopy, a 35-mm cell culture dish (IWAKI) was transfected with 2 μg melanopsin-GFP plasmid and 8 μg PEI in 400 μl Opti-mem and 1.2 ml D-MEM. […]

T1 sequence (Q4R1I4 1-410 limits assumed): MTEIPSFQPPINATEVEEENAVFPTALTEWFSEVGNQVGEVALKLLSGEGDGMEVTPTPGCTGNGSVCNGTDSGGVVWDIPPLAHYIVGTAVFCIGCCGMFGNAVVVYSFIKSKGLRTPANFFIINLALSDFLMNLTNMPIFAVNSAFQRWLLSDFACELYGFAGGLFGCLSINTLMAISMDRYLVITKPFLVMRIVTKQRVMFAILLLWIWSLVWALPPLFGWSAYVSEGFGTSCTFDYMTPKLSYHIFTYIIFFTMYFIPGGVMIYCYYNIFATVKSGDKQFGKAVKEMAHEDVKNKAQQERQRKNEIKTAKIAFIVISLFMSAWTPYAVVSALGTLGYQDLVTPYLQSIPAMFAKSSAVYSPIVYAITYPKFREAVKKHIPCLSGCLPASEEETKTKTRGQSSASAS

COc1ccc(S(=O)(=O)N2CCCCC2)cc1C [AA92593]
reduction of the antagonistic effect of AA92593 vs WT [1]: ~25% | reduction of light-induced cellular responses by the addition of AA92593 (belcheri melanopsin WT): ~34%
